Experimental data from patent EP1145714A1, “DRUGS” (Takeda Chemical Industries, Ltd., priority 1998, dated 2000).

How the values were obtained:
[1] = tested on: acute vomiting induced by cisplatin in ferrets; experiment: Acute vomiting induced by cisplatin in ferrets, compound intraperitoneally given; format: in vivo; conditions: 1 mg/kg i.p., cisplatin 10 mg/kg i.p.
Description: 6 to 9 male ferrets (1.2 to 1.7 kg) per one group were used. Cisplatin was intraperitoneally given at 10 mg/kg. 30 minutes prior to cisplatin administration, predetermined doses of the compound No. 3 were intraperitoneally given to the animals under fasting. Similarly, PEG 400 was intraperitoneally given to a control animal group under fasting. The frequency of vomiting was counted in number, up to 5 hours after cisplatin administration.
The compound No. 3 was dissolved in PEG 400, for intraperitoneal dosing at a ratio of 1 ml per 1 kg body weight. Additionally, PEG 400 was intraperitoneally given at a ratio of 1 ml per 1 kg body weight. The data relating to the frequency of vomiting, the latency and the time period from the occurrence of vomiting to the termination thereof were statistically analyzed by the t test, with reference to the difference from the control group.
(§1) The acute retching suppression ratio and acute vomiting suppression ratio were determined in the same manner as in Example 1,3.

[2] = tested on: cisplatin-induced acute vomiting in dogs; experiment: Cisplatin-induced acute vomiting in dogs, compound intravenously given; format: in vivo, beagle dogs; conditions: cisplatin 3 mg/kg i.v.; for Duration of vomiting (in hour;, mean ± SD) / Frequency of vomiting (mean ± SD) / Number of dogs with vomiting/number of tested dogs / Time period until first vomiting (in hour;, mean ± SD): 5 hours
Description: Male or female 3 beagle dogs (7.3 to 12.0 kg) per one group were used. Cisplatin was intravenously administered at 3 mg/3 ml/kg. 30 minutes before cisplatin administration, predetermined doses of the compound No. 3 were intravenously given to the animals under fasting. Similarly, a predetermined volume of PEG 400 was intravenously given to a control animal group under fasting.
The compound No. 3 was dissolved in PEG 400 to predetermined concentrations, for intravenous dosing at a ratio of 1 ml per 1 kg body weight. Additionally, PEG 400 was intravenously given at a ratio of 1 ml per 1 kg body weight. The data relating to the frequency of vomiting, the latency and the time period from the occurrence of vomiting to the termination thereof were statistically analyzed by the Dunnett test, with reference to the difference from the control group.
as §1

[3] = tested on: methotrexate-induced delayed vomiting in dogs; experiment: Methotrexate-induced delayed vomiting in dogs, oral dosing; format: in vivo, beagle dogs; conditions: methotrexate 2.5 mg/kg i.v.; for Frequency of vomiting (mean ± SD), Total frequency / Number of dogs with vomiting/number of tested dogs: 72 hours
Description: 3 or 4 beagle dogs (8.3 to 12.6 kg), male or female per one group were used. Methotrexate was intravenously administered at 2.5 mg/ml/kg. 8, 24 and 48 hours after methotrexate dosing, predetermined doses of the compound No. 3, ondansetron and 0.5% methyl cellulose solution were orally given. The compound No. 3 and 0.5 % methyl cellulose solution were dosed 30 minutes after a small amount of a feed was given to the animals, while ondansetron was dosed to the animals under fasting. The frequency of vomiting was counted in number, up to 72 hours after methotrexate dosing. The compound No. 3 was suspended in 0.5 % methyl cellulose solution and was then orally dosed at a ratio of 0.25 to 1 ml per 1 kg body weight. A predetermined volume of an ondansetron injection at a concentration of 0.2 w/v % was orally dosed. Additionally, 0.5 % methyl cellulose solution was orally given at a ratio of 1 ml per 1 kg body weight. The data relating to the frequency of vomiting, the latency and the time period from the occurrence of vomiting to the termination thereof were statistically analyzed by the Dunnett test, with reference to the difference from the control group.
The delayed vomiting suppression ratio and the suppression ratio of the total frequency of vomiting were calculated by the following formula.

[4] = tested on: vomiting induced by a central emetic agent apomorphine in dogs; experiment: Vomiting induced by apomorphine in dogs; format: in vivo, beagle dogs; conditions: apomorphine 0.1 mg/kg subcutaneous; for B: Frequency of vomiting (mean ± SD) / C: Time period until first vomiting (minute; mean ± SD) / D: Duration of vomiting (minute; mean ± SD) / Number of dogs with vomiting/number of tested dogs: one hour
Description: 3 male or female beagle dogs (7.8 to 15.9 kg) per one group were used. Apomorphine was subcutaneously given at 0.1 mg/ml/kg. 2.5 hours prior to apomorphine administration, a small amount of a feed was given to the animals. 30 minutes thereafter, predetermined doses of the compound No. 3 were orally given. Similarly, 0.5 % methyl cellulose solution was orally given to a control animal group under no fasting. A predetermined dose of ondansetron was given orally to the animals under fasting. The frequency of vomiting was counted in number, up to one hour after apomorphine administration. The compound No. 3 was dissolved in 0.5 % methyl cellulose solution, for oral dosing at a ratio of 1 ml per 1 kg • body weight. An injection of ondansetron at a concentration of 0.2% w/v was orally given. Additionally, 0.5 % methyl cellulose solution was orally given at a ratio of 1 ml per 1 kg • body weight. The data relating to the frequency of vomiting, the latency and the time period from the occurrence of vomiting to the termination thereof were statistically analyzed by the Dunnett test, with reference to the difference from the control group.
The vomiting suppression ratio was calculated by the following formula.

## Cc1ccc(-c2c3n(c(=O)c4ncccc24)CC[C@@H](C)CN(Cc2cc(C(F)(F)F)cc(C(F)(F)F)c2)C3=O)cc1 [Cpd. No.3, (9R)-7-[3,5-bis(trifluoromethyl)benzyl]-6,7,8,9,10,11-hexahydro-9-methyl-5-(4-methylphenyl)-6,13-dioxo-13H-[1,4]diazocino[2,1-g][1,7]naphthylidine]
[1]
  Effect on cisplatin-induced retching and actual vomiting (in words): significantly suppressed
  Suppression ratio of acute retching: 53 % b
  Suppression ratio of acute vomiting: 49 % a
[1]; 5 hours
  Duration of retching (in minute, mean ± SD): 2.6 ± 0.3 min
  Duration of vomiting (in minute, mean ± SD): 1.7 ± 0.3 b minute
  Frequency of retching (mean ± SD): 57.5 ± 6.2 b
  Frequency of vomiting (mean ± SD): 5.7 ± 1.0 a
  Number of ferrets with retching /number of tested ferrets: 6/6
  Number of ferrets with vomiting /number of tested ferrets: 6/6
  Time period until first retching (in minute, mean ± SD): 1.5 ± 0.1 min
  Time period until first vomiting (in minute, mean ± SD): 1.8 ± 0.1 min
[2]; 0.3 mg/kg i.v.
  Suppression ratio of acute vomiting: 34 % b
  Duration of vomiting (in hour;, mean ± SD): 1.6 ± 0.2 h
  Frequency of vomiting (mean ± SD): 12.0 ± 1.5a
  Number of dogs with vomiting/number of tested dogs: 3/3
  Time period until first vomiting (in hour;, mean ± SD): 1.6 ± 0.2 h
[2]; 0.3 mg/kg or higher i.v.
  Effect on cisplatin-induced vomiting (in words): significantly suppressed
[2]; 1 mg/kg i.v.
  Suppression ratio of acute vomiting: 71 % b
  Duration of vomiting (in hour;, mean ± SD): 1.7 ± 0.5 h
  Frequency of vomiting (mean ± SD): 5.3 ± 1.2 a
  Number of dogs with vomiting/number of tested dogs: 3/3
  Time period until first vomiting (in hour;, mean ± SD): 1.4 ± 0.3 h
[2]; 3 mg/kg i.v.
  Effect on cisplatin-induced vomiting (in words): almost completely suppressed
  Suppression ratio of acute vomiting: 96 % b
  Duration of vomiting (in hour;, mean ± SD): 0.1 ± 0.1 a hour
  Frequency of vomiting (mean ± SD): 0.7 ± 0.7 a
  Number of dogs with vomiting/number of tested dogs: 1/3
  Time period until first vomiting (in hour;, mean ± SD): 3.9 ± 1.1 a hour
[2]; i.v.
  Effect on the latency (in words): prolonged
[3]; 0.01 mg/kg or higher p.o.
  Effect on methotrexate-induced vomiting (in words): significantly suppressed
  Effect on the time period from the occurrence of vomiting to the termination thereof (in words): significantly shortened
[3]; 0.01 mg/kg p.o. once daily
  Delayed vomiting suppression ratio (24 to 72 hours after MIX dosing): 60 % b
  Suppression ratio of total frequency of vomiting (0 to 72 hours after MTX dosing): 62 % b
[3]; 0.01 mg/kg p.o.
  Duration (in hour; mean ± SD): 21.8 ± 5.8 a hour
  Frequency of vomiting (mean ± SD), Day 0 (0-24 hours): 0 b
  Frequency of vomiting (mean ± SD), Days 1 + 2 (24 - 72 hours): 4.7 ± 0.7 b
  Latency (in hour; mean ± SD): 33.8 ± 4.8 h
  Frequency of vomiting (mean ± SD), Total frequency: 4.7 ± 0.7 b
  Number of dogs with vomiting/number of tested dogs: 3/3
[3]; 0.1 mg/kg p.o. once daily
  Delayed vomiting suppression ratio (24 to 72 hours after MIX dosing): 74 % b
  Suppression ratio of total frequency of vomiting (0 to 72 hours after MTX dosing): 76 % b
[3]; 0.1 mg/kg p.o.
  Duration (in hour; mean ± SD): 15.0 ± 8.0 b hour
  Frequency of vomiting (mean ± SD), Day 0 (0-24 hours): 0 b
  Frequency of vomiting (mean ± SD), Days 1 + 2 (24 - 72 hours): 3.0 ± 1.0 b
  Latency (in hour; mean ± SD): 35.7 ± 7.1 h
  Frequency of vomiting (mean ± SD), Total frequency: 3.0 ± 1.0 b
  Number of dogs with vomiting/number of tested dogs: 3/3
[3]; 1 mg/kg p.o. once daily
  Delayed vomiting suppression ratio (24 to 72 hours after MIX dosing): 68 % b
  Suppression ratio of total frequency of vomiting (0 to 72 hours after MTX dosing): 70 % b
[3]; 1 mg/kg p.o.
  Duration (in hour; mean ± SD): 14.4 ± 6.1 b hour
  Frequency of vomiting (mean ± SD), Day 0 (0-24 hours): 0 b
  Frequency of vomiting (mean ± SD), Days 1 + 2 (24 - 72 hours): 3.7 ± 0.7 b
  Latency (in hour; mean ± SD): 46.7 ± 8.7 h
  Frequency of vomiting (mean ± SD), Total frequency: 3.7 ± 0.7 b
  Number of dogs with vomiting/number of tested dogs: 3/3
[3]; 3 mg/kg p.o. once daily
  Delayed vomiting suppression ratio (24 to 72 hours after MIX dosing): 85 % b
  Suppression ratio of total frequency of vomiting (0 to 72 hours after MTX dosing): 86 % b
[3]; 3 mg/kg p.o.
  Duration (in hour; mean ± SD): 6.4 ± 5.9 b hour
  Frequency of vomiting (mean ± SD), Day 0 (0-24 hours): 0 b
  Frequency of vomiting (mean ± SD), Days 1 + 2 (24 - 72 hours): 1.7 ± 0.3 b
  Latency (in hour; mean ± SD): 45.5 ± 3.3 h
  Frequency of vomiting (mean ± SD), Total frequency: 1.7 ± 0.3 b
  Number of dogs with vomiting/number of tested dogs: 3/3
[3]; 10 mg/kg p.o. once daily
  Delayed vomiting suppression ratio (24 to 72 hours after MIX dosing): 97 % b
  Suppression ratio of total frequency of vomiting (0 to 72 hours after MTX dosing): 98 % b
[3]; 10 mg/kg p.o.
  Duration (in hour; mean ± SD): 0 b hour
  Effect on methotrexate-induced vomiting (in words): almost completely suppressed
  Frequency of vomiting (mean ± SD), Day 0 (0-24 hours): 0 b
  Frequency of vomiting (mean ± SD), Days 1 + 2 (24 - 72 hours): 0.3 ± 0.3 b
  Latency (in hour; mean ± SD): 66.2 ± 5.8 b hour
  Frequency of vomiting (mean ± SD), Total frequency: 0.3 ± 0.3 b
  Number of dogs with vomiting/number of tested dogs: 1/4
[4]; 3 mg/kg p.o.
  Effect on vomiting (in words): likely to be suppressed
  Vomiting suppression ratio: 48 % NS
  B: Frequency of vomiting (mean ± SD): 6.3 ± 1.3
  C: Time period until first vomiting (minute; mean ± SD): 7.2 ± 0.6 min
  D: Duration of vomiting (minute; mean ± SD): 12.0 ± 3.0 min
  Number of dogs with vomiting/number of tested dogs: 3/3
[4]; 10 mg/kg p.o.
  Effect on the duration of vomiting from the start to the termination (in words): greatly shortened
  Effect on vomiting (in words): prominently suppressed
  Vomiting suppression ratio: 89 % a
  B: Frequency of vomiting (mean ± SD): 1.3± 0.9b
  C: Time period until first vomiting (minute; mean ± SD): 27.6 ± 13.8 min
  D: Duration of vomiting (minute; mean ± SD): 1.2 ± 1.2 a minute
  Number of dogs with vomiting/number of tested dogs: 2/3

## Cc1nccn1CC1CCc2c(c3ccccc3n2C)C1=O (stereo not drawn) [Ondansetron, ondansetron, reference compound]
[3]; 10 mg/kg p.o. once daily
  Delayed vomiting suppression ratio (24 to 72 hours after MIX dosing): 21 % NS
  Suppression ratio of total frequency of vomiting (0 to 72 hours after MTX dosing): 24 % NS
[3]; 10 mg/kg p.o.
  Duration (in hour; mean ± SD): 27.8 ± 2.7 h
  Frequency of vomiting (mean ± SD), Day 0 (0-24 hours): 0 b
  Frequency of vomiting (mean ± SD), Days 1 + 2 (24 - 72 hours): 9.3 ± 2.3
  Latency (in hour; mean ± SD): 28.6 ± 3.9 h
  Frequency of vomiting (mean ± SD), Total frequency: 9.3 ± 2.3
  Number of dogs with vomiting/number of tested dogs: 3/3
[4]; 10 mg/kg p.o.
  Effect on vomiting (in words): did not suppress
  Vomiting suppression ratio: 0 % NS
  B: Frequency of vomiting (mean ± SD): 13.7 ± 2.4
  C: Time period until first vomiting (minute; mean ± SD): 2.4 ± 0.6 min
  D: Duration of vomiting (minute; mean ± SD): 22.8 ± 3.6 min
  Number of dogs with vomiting/number of tested dogs: 3/3
